Data on 19 molecules can be found in PubChem BioAssay (NCI).

What all share (assay): growth of human tumour cells (NCI), 48 h
Assay [1] deals with A498 renal.
The test system of assay [2] is COLO 205 colon.
In assay [3] the test system is DU-145 prostate.
Assay [4] has as its system HL-60(TB) leukemia.
In assay [5] the test system is HT29 colon.
Assay [6] concerns IGROV1 ovarian.
Assay [7] concerns K-562 leukemia.
Assay [8] has as its system M14 melanoma.
The subject of assay [9] is MDA-MB-435.
In assay [10] the test system is NCI-H460 lung.
In assay [11] the test system is RXF 393 renal.
Assay [12] deals with SF-268 CNS.
In assay [13] the test system is SK-MEL-28 melanoma.
In assay [14] the test system is SNB-19 CNS.
Assay [15] deals with HCC-2998 colon.
Assay [16] concerns SK-MEL-2 melanoma.
Assay [17] relates to UO-31 renal.
The subject of assay [18] is PC-3 prostate.

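Cells were grown in 96-well plates and exposed to each compound for 48 hours at five concentrations; endpoints were interpolated linearly between bracketing concentrations, or set to the highest concentration if not reached. TGI: concentration producing complete growth inhibition.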 Where only a bound is given, the exact number is not on record here.

In the case of `COP(=O)(Cc1ccc(/C=C/C#N)o1)OC`, the TGI in assay [1], in assay [2], in assay [3], in assay [4], in assay [5] and in assay [6] was over 100 µM throughout. Besides, the TGI in assay [7], in assay [8], in assay [9], in [10], in assay [11] and in [12] was over 100 µM in each case. Moreover, the TGI in assay [13] and in [14] was over 100 µM throughout.

Take `CCOCN1COCN=C1NC#N`: the TGI is over 100 µM in assay [1]; 69.7 µM in assay [2]; over 100 µM in [15]; over 100 µM in assay [4]; over 100 µM in [5]; over 100 µM in [6]. In addition, the TGI in assay [7] is over 100 µM; in assay [8], over 100 µM; in assay [10], over 100 µM; in assay [11] it was 34.7 µM; in assay [12], over 100 µM; in assay [16] it was over 100 µM. Further, the TGI in [13], in assay [14] and in assay [17] was over 100 µM throughout.

Turning to `Cc1ccccc1C1OC(=O)c2ccccc21` (centres undefined), the TGI in assay [1], in [2], in assay [15], in [4], in assay [5] and in assay [6] was over 100 µM each time. The TGI in assay [7], in assay [8], in assay [10], in assay [11], in [12] and in [16] was over 100 µM throughout. Besides, the TGI in assay [13], in [14] and in assay [17] was over 100 µM in each case.

On to `COc1ccc(/C(Cl)=C(/c2ccc(O)cc2)c2ccc(OCCN(C)C)cc2)cc1`, for which the TGI in assay [2] amounted to 22.4 µM; in assay [15] it was 30.5 µM; in [4], 26 µM; in assay [5], 6.49 µM; in [6], 33.2 µM; in [8] it was 4.22 µM. The TGI in assay [10] was 26 µM; in assay [11] it was 18.4 µM; in [12], 24.7 µM; in [16] it was 22.4 µM; in assay [13] it was 13.4 µM; in assay [14], 27.1 µM. In addition, the TGI in assay [17] was found to be 19.7 µM.

For the molecule `CCCCCCCc1cc(OC(=O)c2c(C)cc(OC)cc2O)cc(O)c1C(=O)O`, the TGI is 38 µM in assay [1]; 37.3 µM in assay [2]; 35.6 µM in assay [15]; 68.3 µM in assay [4]; over 100 µM in assay [5]; 55.3 µM in [6]. Moreover, the TGI is over 100 µM in assay [7]; 36.6 µM in assay [8]; 36 µM in assay [10]; 52.2 µM in assay [11]; 45.9 µM in [12]; 36.9 µM in assay [16]. The results for the TGI in assay [13], in [14] and in assay [17] were 38.7 µM, 58.3 µM and 30.6 µM, respectively.

On to `C#CCNC(=O)NCCCC(NC(C)=O)C(=O)NCc1ccccc1` (centres undefined), for which the TGI in assay [1], in assay [2], in [15], in assay [4], in assay [5] and in assay [6] was over 100 µM throughout. The TGI in assay [7], in assay [8], in assay [10], in assay [11], in assay [12] and in assay [13] was over 100 µM in each case. The TGI in [14] and in assay [17] was over 100 µM in each case.

On to `n1onc2c1NC1Nc3nonc3NC1N2` (centres undefined), for which the TGI in assay [1], in assay [2], in assay [3], in assay [15], in assay [4] and in assay [5] was over 100 µM in each case. Further, the TGI in assay [6], in assay [7], in assay [8], in assay [9], in assay [10] and in [18] was over 100 µM each time. Further, the TGI in assay [12], in assay [13], in assay [14] and in [17] was over 100 µM throughout.

`Nc1ccc2nc(NCc3ccc(F)cc3)cnc2c1`: the TGI in [2], in [15], in [4], in [5], in [6] and in assay [7] was over 100 µM in each case. Moreover, the TGI in assay [8], in assay [10], in [11], in assay [12], in [16] and in assay [13] was over 100 µM each time. In addition, the TGI in [14] and in assay [17] was over 100 µM each time.

As for `N#CCCN(c1ccc(/C=C2\N=C(Cc3ccccc3)OC2=O)cc1)S(=O)(=O)c1ccccc1`, the TGI in assay [1], in [2], in assay [15], in [4], in assay [5] and in [6] was over 100 µM each time. The TGI in assay [7], in [8], in assay [10], in assay [11], in [12] and in assay [16] was over 100 µM each time. In addition, the TGI in assay [13], in assay [14] and in assay [17] was over 100 µM throughout.

Regarding `CN(C)CCC(O)(c1ccccc1)C(O)(CCN(C)C)c1ccccc1` (centres undefined), the TGI in assay [1], in assay [2], in [15], in assay [5], in [6] and in assay [7] was over 100 µM throughout. In addition, the TGI in assay [8] was 32.8 µM; in assay [10], over 100 µM; in assay [12] it was over 100 µM; in assay [16], over 100 µM; in [13], over 100 µM; in assay [14], over 100 µM. Moreover, the TGI in assay [17] was over 100 µM.

As to `CCOc1ccc(NC(=O)C(=O)NO)cc1`, the TGI in [1], in assay [2], in assay [15], in assay [4], in [5] and in assay [6] was over 100 µM each time. Besides, the TGI in [7], in assay [8], in assay [10], in assay [11], in assay [12] and in assay [16] was over 100 µM throughout. For the same molecule, the TGI in assay [13], in [14] and in assay [17] was over 100 µM throughout.

For `CC(=O)N1CN2C(=O)CCC2c2ccccc21` (centres undefined), the TGI in assay [1], in assay [2], in assay [3], in assay [15], in assay [5] and in [6] was over 100 µM each time. Further, the TGI in [7], in assay [8], in assay [9], in assay [10], in [18] and in assay [11] was over 100 µM each time. Also, the TGI in assay [12], in assay [16], in [13], in assay [14] and in assay [17] was over 100 µM throughout.

Take `CCOC(=O)[C@]12C(=C(c3ccccc3)O[C@H]3C=CCC[C@H]31)C(=O)C(=O)N2c1ccccc1`: the TGI in assay [1] is over 100 µM; in assay [2], over 100 µM; in [3] it was over 100 µM; in assay [15], over 100 µM; in assay [5] it was over 100 µM; in [7], 84.5 µM. Further, the TGI in [8], in [10], in assay [18], in assay [11], in assay [12] and in assay [16] was over 100 µM in each case. The TGI in assay [14] and in [17] was over 100 µM each time.

In the case of `CC(C)(C)OC(=O)CC(NC(=O)OC(C)(C)C)C(=O)N[C@@H]1CCCC[C@H]1C(=O)OCc1ccccc1` (some centres undefined), the TGI in assay [2] is 38.2 µM; in [3], 99.8 µM; in assay [15] it was 64.7 µM; in [4], 68.9 µM; in assay [5], 59.1 µM; in assay [6], over 100 µM. Also, the TGI was over 100 µM in assay [7]; over 100 µM in [8]; 92.2 µM in [9]; over 100 µM in assay [10]; over 100 µM in assay [18]; over 100 µM in [11]. In addition, the TGI in [12] was over 100 µM; in assay [16], 61.1 µM; in [13] it was over 100 µM; in [14] it was 69.3 µM; in [17], 53.8 µM.

In the case of `COc1ccccc1/C=C(\C#N)C(=O)c1ccccc1`, the TGI in assay [1], in assay [2], in assay [15], in assay [4], in [5] and in assay [6] was over 100 µM throughout. In addition, the TGI in [7], in assay [8], in assay [10], in [12], in [16] and in assay [13] was over 100 µM throughout. Moreover, the TGI in [14] and in assay [17] was over 100 µM in each case.

With `CCOc1ccc(NC(=O)C2=C(C)NC(C)=C(C(=O)Nc3ccc(OCC)cc3)C2c2ccc(O)c(OC)c2)cc1`, the TGI was 66.7 µM in assay [1]; over 100 µM in assay [2]; 76.1 µM in assay [15]; over 100 µM in [4]; over 100 µM in [5]; over 100 µM in [6]. Moreover, the TGI in assay [7], in [8], in assay [10], in assay [11], in assay [12] and in assay [16] was over 100 µM in each case. In addition, the TGI in assay [13], in [14] and in assay [17] was over 100 µM throughout.

Regarding `Nc1nc(NCCO)c(N=O)c(=O)[nH]1`, the TGI in assay [1], in assay [2], in [4], in assay [5], in assay [6] and in assay [7] was over 100 µM in each case. Further, the TGI in [8], in assay [10], in assay [11], in assay [12], in assay [16] and in assay [13] was over 100 µM in each case. The molecule also returned a TGI in assay [17] of over 100 µM.

For the molecule `COc1ccc(N(CN2C(=O)CCC2C(=O)O)C(C)=O)cc1` (centres undefined), the TGI in [1], in assay [2], in [3], in [15], in assay [4] and in assay [5] was over 100 µM each time. Further, the TGI in assay [7], in [8], in assay [9], in [10], in [18] and in assay [12] was over 100 µM each time. The TGI in assay [16], in assay [13], in assay [14] and in assay [17] was over 100 µM throughout.

For the molecule `O=C(CC(=O)Nc1cccc(Cl)c1)NNCC(=O)Nc1nnc(-c2ccccc2)s1`, the TGI in [1] is 86.8 µM; in [2], over 100 µM; in assay [15], over 100 µM; in assay [4], over 100 µM; in [5] it was over 100 µM; in assay [6] it was over 100 µM. The TGI in [7], in assay [8], in assay [10], in [12], in assay [16] and in assay [13] was over 100 µM in each case. Moreover, the TGI in assay [14] and in [17] was over 100 µM throughout.
